Patent publication US11091478B2 (Fochon Pharmaceuticals, Ltd., priority 2017, dated 2021)

Assays:
RS4;11 cells = test: Cell proliferation assay (MTS), RS4;11 cells, 72 h; assay type: cell-based; details: Homo sapiens, RS4-11, 72 h
In short: (§1)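 RS4;11 and DOHH2 cells at 5000 cells/well in RPMI-1640 with 10% FBS were treated with compound at 1.5–10000 nM final, nine points, at 37 °C, 5% CO2. Exposure was 72 h for RS4;11 and 120 h for DOHH2. MTS was added for 2 h, absorbance read at 490/650 nm, and IC50 calculated.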

DOHH2 cells = test: Cell proliferation assay (MTS), DOHH2 cells, 120 h; assay type: cell-based; details: Homo sapiens, DOHH-2, 120 h
In short: as §1

SMILES | IC50 (RS4;11 cells) [nM] | IC50 (DOHH2 cells) [nM]
CN(C)C(=O)[C@H]1COc2cc(S(=O)(=O)NC(=O)c3ccc(N4CCN(CC5=C(c6ccc(Cl)cc6)CC(C)(C)CC5)CC4)cc3Oc3cnc4[nH]ccc4c3)cc([N+](=O)[O-])c2N1 [Example 2-102, (R)-7-(N-(2-((1H-pyrrolo[2,3-b]pyridin-5-yl)oxy)-4-(4-((4′-chloro-5,5-dimethyl-3,4,5,6-tetrahydro-[1,1′-biphenyl]-2-yl)methyl)pi-perazin-1-yl)benzoyl)sulfamoyl)-N,N-dimethyl-5-nitro-3,4-dihydro-2H-benzo[b] [1,4]oxazine-3-carboxamide] | 10 | 95
CC1(C)CCC(CN2CCN(c3ccc(C(=O)NS(=O)(=O)c4cc5c(c([N+](=O)[O-])c4)N[C@@H](CN4CCOCC4)C5)c(Oc4cnc5[nH]ccc5c4)c3)CC2)=C(c2ccc(Cl)cc2)C1 [Example 1-8, (R)-2-((1H-pyrrolo[2,3-b]pyridin-5-yl)oxy)-4-(4-((4′-chloro-5,5-dimethyl-3,4,5,6-tetra-hydro-[1,1′-biphenyl]-2-yl)methyl)piperazin-1-yl)-N-((2-(morpholinomethyl)-7-nitro-indolin-5-yl)sulfonyl)benzamide] | 1 | 27
C[C@@H]1CN(CC[C@@H]2COc3cc(S(=O)(=O)NC(=O)c4ccc(N5CCN(CC6=C(c7ccc(Cl)cc7)CC(C)(C)CC6)CC5)cc4Oc4cnc5[nH]ccc5c4)cc([N+](=O)[O-])c3N2)CCN1C [Example 2-36, 2-((1H-pyrrolo[2,3-b]pyridin-5-yl)oxy)-4-(4-((4′-chloro-5,5-dimethyl-3,4,5,6-tetrahydro-[1,1′-biphenyl]-2-yl)methyl)piperazin-1-yl)-N-(((R)-3-(2-((R)-3,4-dimethylpiperazin-1-yl)ethyl)-5-nitro-3,4-dihydro-2H-benzo [b][1,4]oxazin-7-yl)sulfonyl)benzamide] | 7 | 33
CC1(C)CCC(CN2CCN(c3ccc(C(=O)NS(=O)(=O)c4cc5c(c([N+](=O)[O-])c4)N[C@@H](CS(C)(=O)=O)CO5)c(Oc4cnc5[nH]ccc5c4)c3)CC2)=C(c2ccc(Cl)cc2)C1 [Example 2-147, (R)-2-((1H-pyrrolo[2,3-b]pyridin-5-yl)oxy)-4-(4-((4′-chloro-5,5-dimethyl-3,4,5,6-tetra-hydro-[1,1′-biphenyl]-2-yl)methyl)piperazin-1-yl)-N-((3-((methylsulfonyl)methyl)-5-nitro-3,4-dihdyro-2H-benzo[b][1,4]oxazin-7-yl)sulfonyl)benzamide] | 16 | 135

Now from value to molecule, other results behind:

IC50 (RS4;11 cells) [nM] | SMILES | IC50 (DOHH2 cells) [nM]
1 | CN1CCN(C[C@@H]2CNc3cc(S(=O)(=O)NC(=O)c4ccc(N5CCN(CC6=C(c7ccc(Cl)cc7)CC(C)(C)CC6)CC5)cc4Oc4cnc5[nH]ccc5c4)cc([N+](=O)[O-])c3N2)CC1 [Example 4-1, (S)-2-((1H-pyrrolo[2,3-b]pyridin-5-yl)oxy)-4-(4-((4′-chloro-5,5-dimethyl-3,4,5,6-tetrahydro-[1,1′-biphenyl]-2-yl)methyl)piperazin-1-yl)-N-((2-((4-methylpiperazin-1-yl)methyl)-8-nitro-1,2,3,4-tetrahydroquinoxalin-6-yl)sulfonyl)benzamide] | 13
10 | CC1(C)CCC(c2ccc(Cl)cc2)=C(CN2CCN(c3ccc(C(=O)NS(=O)(=O)c4cc5c(c([N+](=O)[O-])c4)N[C@@H](CC4CCOCC4)CO5)c(Oc4cnc5[nH]ccc5c4)c3)CC2)C1 [Example 2-235, (S)-2-((1H-pyrrolo[2,3-b]pyridin-5-yl)oxy)-4-(4-((4′-chloro-4,4-dimethyl-3,4,5,6-tetra-hydro-[1,1′-biphenyl]-2-yl)methyl)piperazin-1-yl)-N-((5-nitro-3-((tetrahydro-2H-pyran-4-yl)methyl)-3,4-dihdyro-2H-benzo[b] [1,4]oxazin-7-yl)sulfonyl)benzamide] | 23
